Data: US20180213790A1, “COMPOSITIONS AND USES THEREOF FOR CONTROLLING ECTOPARASITES IN NON-HUMAN MAMMALS” (priority 2015, published 2018)
Read-outs that look alike come from different tables or passages of the source.

Tests used:
Ctenocephalides felis = details: for EC50 (ppm) Total amount of actives (ppm): total of dinotefuran and fipronil; for EC50 (ppm) Dinotefuran: amount of dinotefuran
Procedure: Insecticidal activity of dinotefuran, fipronil and dinotefuran/fipronil combinations at different ratios was evaluated using an in vitro coated-vial bioassay. Serial dilutions of test compounds, individually or in combination, were conducted with an acetone/triton solution+0.5% DMSO from a dinotefuran starting dose at 100 ppm and from a fipronil starting dose at 50 ppm. Vials were treated with dinotefuran, fipronil, dinotefuran/fipronil (tested at 6 ratios). Vials were capped and allowed to dry for at least 4 hours before the addition of 10 newly emerged (0-7 days old) unfed adult fleas (Ctenocephalides felis). Flea susceptibility was assessed at 6, 24 and 48 hours post-exposure by evaluating mortality. The EC50 and EC90 values were calculated based on Median-Effect Principle (Chu, 2006. Theoretical Basis, Experimental design, and Computerized Simulation of Synergism and Antagonism in drug Combination studies. Pharmacological reviews, 58(3):621-681) using COMPUSYN (version 1.0). EC50 and EC90 are defined as the amount of drugs, which causes respectively a 50% and 90% flea mortality. Combination indexes (CI) at EC50 and EC90 were calculated to characterize the interaction of each combination: synergism (CI<1), antagonism (CI>1) and additive effect (CI=1) and a combination index (CI) values were calculated at 48 hours of exposure to assess the potential for synergistic activity (Chou, Pharmacol. Rev. 2006, 58, 621-681; Chou, Drug combination studies and their synergy quantification using the Chou-Talalay method, Cancer. Res., 2010, 70: 440-446).

Rhipicephalus sanguineus = assay: in vitro coated-vial bioassay, activity against ticks; details: for mortality at 0.206 ppm / mortality at 0.617 ppm / mortality at 1.852 ppm / mortality at 5.556 ppm / mortality at 16.667 ppm / mortality at 50 ppm: Rhipicephalus sanguineus; for mortality at 0.206 ppm: D 0.000 ppm + F 0.206 ppm; for mortality at 0.617 ppm: D 0.000 ppm + F 0.617 ppm; for mortality at 1.852 ppm: D 0.000 ppm + F 1.852 ppm; for mortality at 5.556 ppm: D 0.000 ppm + F 5.556 ppm; for mortality at 16.667 ppm: D 0.000 ppm + F 16.667 ppm; for mortality at 50 ppm: D 0.000 ppm + F 50.000 ppm; for EC50 (ppm) Total amount of actives (ppm): total of dinotefuran and fipronil
Procedure: Tick susceptibility was assessed at 12, 24 and 48 hours post-exposure by evaluating mortality.

[1] = 12 H, read-out: Mortality (%) 12 H
[2] = 24 H, read-out: Mortality (%) 24 H
[3] = 48 H, read-out: Mortality (%) 48 H

## N#Cc1nn(-c2c(Cl)cc(C(F)(F)F)cc2Cl)c(N)c1[S+]([O-])C(F)(F)F (racemic) [D:F = 0:1, (RS)-5-amino-1-[2,6-dichloro-4-(trifluoromethyl)phenyl]-4-(trifluoromethylsulfinyl)-1H-pyrazole-3-carbonitrile]
Ctenocephalides felis; Table 2, fleas, amount of fipronil, alone or in the combination
  EC50 (ppm) Fiproml: 13.83 ppm
Ctenocephalides felis; Table 2, fleas
  EC50 (ppm) Total amount of actives (ppm): 13.83 ppm
Rhipicephalus sanguineus; [1]
  mortality at 0.206 ppm: 0%
  mortality at 0.617 ppm: 0%
  mortality at 1.852 ppm: 0%
  mortality at 5.556 ppm: 0%
  mortality at 16.667 ppm: 60%
  mortality at 50 ppm: 60%
Rhipicephalus sanguineus; [2]
  mortality at 0.206 ppm: 0%
  mortality at 0.617 ppm: 0%
  mortality at 1.852 ppm: 0%
  mortality at 5.556 ppm: 20%
  mortality at 16.667 ppm: 80%
  mortality at 50 ppm: 100%
Rhipicephalus sanguineus; [3]
  mortality at 0.206 ppm: 0%
  mortality at 0.617 ppm: 10%
  mortality at 1.852 ppm: 0%
  mortality at 5.556 ppm: 60%
  mortality at 16.667 ppm: 100%
  mortality at 50 ppm: 100%
Rhipicephalus sanguineus; Table 5, ticks, amount of fipronil
  EC50 (ppm) Fipronil: 3.77 ppm
Rhipicephalus sanguineus; Table 5, ticks
  EC50 (ppm) Total amount of actives (ppm): 3.77 ppm

## CN/C(=N\[N+](=O)[O-])NCC1CCOC1 (stereo not drawn) [D:F = 1:0, 2-methyl-l-nitro-3-[(tetrahydro-3-furanyl)methyl] guanidine]
Ctenocephalides felis
  activity against fleas (in words): more potent than fipronil
Ctenocephalides felis; D 0.412 ppm + F 0.000 ppm
  Mortality (%) 6 H: 0%
  Mortality (%) 24 H: 10%
  Mortality (%) 48 H: 0%
Ctenocephalides felis; D 1.235 ppm + F 0.000 ppm
  Mortality (%) 6 H: 0%
  Mortality (%) 24 H: 10%
  Mortality (%) 48 H: 20%
Ctenocephalides felis; D 3.704 ppm + F 0.000 ppm
  Mortality (%) 6 H: 0%
  Mortality (%) 24 H: 20%
  Mortality (%) 48 H: 50%
Ctenocephalides felis; D 11.111 ppm + F 0.000 ppm
  Mortality (%) 6 H: 10%
  Mortality (%) 24 H: 30%
  Mortality (%) 48 H: 60%
Ctenocephalides felis; D 33.333 ppm + F 0.000 ppm
  Mortality (%) 6 H: 0%
  Mortality (%) 24 H: 10%
  Mortality (%) 48 H: 80%
Ctenocephalides felis; D 100.000 ppm + F 0.000 ppm
  Mortality (%) 6 H: 40%
  Mortality (%) 24 H: 80%
  Mortality (%) 48 H: 90%
Ctenocephalides felis; Table 2, fleas, alone or in the combination
  EC50 (ppm) Dinotefuran: 8.05 ppm
Ctenocephalides felis; Table 2, fleas
  EC50 (ppm) Total amount of actives (ppm): 8.05 ppm
Ctenocephalides felis; Table 3 (head EC50, text says EC90), fleas
  EC50 (ppm) Dinotefuran: 50.87 ppm
Rhipicephalus sanguineus
  acaricidal activity against ticks (in words): not active
Rhipicephalus sanguineus; D 0.412 ppm + F 0.000 ppm, 12 H
  Mortality (%) 12 H: 0%
Rhipicephalus sanguineus; D 0.412 ppm + F 0.000 ppm, 24 H
  Mortality (%) 24 H: 0%
Rhipicephalus sanguineus; D 0.412 ppm + F 0.000 ppm, 48 H
  Mortality (%) 48 H: 0%
Rhipicephalus sanguineus; D 1.235 ppm + F 0.000 ppm, 12 H
  Mortality (%) 12 H: 0%
Rhipicephalus sanguineus; D 1.235 ppm + F 0.000 ppm, 24 H
  Mortality (%) 24 H: 0%
Rhipicephalus sanguineus; D 1.235 ppm + F 0.000 ppm, 48 H
  Mortality (%) 48 H: 0%
Rhipicephalus sanguineus; D 3.704 ppm + F 0.000 ppm, 12 H
  Mortality (%) 12 H: 0%
Rhipicephalus sanguineus; D 3.704 ppm + F 0.000 ppm, 24 H
  Mortality (%) 24 H: 0%
Rhipicephalus sanguineus; D 3.704 ppm + F 0.000 ppm, 48 H
  Mortality (%) 48 H: 0%
Rhipicephalus sanguineus; D 11.111 ppm + F 0.000 ppm, 12 H
  Mortality (%) 12 H: 0%
Rhipicephalus sanguineus; D 11.111 ppm + F 0.000 ppm, 24 H
  Mortality (%) 24 H: 0%
Rhipicephalus sanguineus; D 11.111 ppm + F 0.000 ppm, 48 H
  Mortality (%) 48 H: 0%
Rhipicephalus sanguineus; D 33.333 ppm + F 0.000 ppm, 12 H
  Mortality (%) 12 H: 0%
Rhipicephalus sanguineus; D 33.333 ppm + F 0.000 ppm, 24 H
  Mortality (%) 24 H: 0%
Rhipicephalus sanguineus; D 33.333 ppm + F 0.000 ppm, 48 H
  Mortality (%) 48 H: 0%
Rhipicephalus sanguineus; D 100.000 ppm + F 0.000 ppm, 12 H
  Mortality (%) 12 H: 0%
Rhipicephalus sanguineus; D 100.000 ppm + F 0.000 ppm, 24 H
  Mortality (%) 24 H: 0%
Rhipicephalus sanguineus; D 100.000 ppm + F 0.000 ppm, 48 H
  Mortality (%) 48 H: 0%
Rhipicephalus sanguineus; Table 5, ticks, amount of dinotefuran
  EC50 (ppm) Dinotefuran: >100 ppm
Rhipicephalus sanguineus; Table 5, ticks
  EC50 (ppm) Total amount of actives (ppm): 100 ppm
